# Measured values published in patent US9113629B2, “4-amino-6-(4-substituted-phenyl)-picolinates and 6-amino-2-(4-substituted-phenyl)-pyrimidine-4-carboxylates and their use as herbicides” (DOW AGROSCIENCES LLC, priority 2013, dated 2015).
# Like-named read-outs stand apart in the source and are kept apart here.
# How the values were obtained:
# [1] = system: Key Broadleaf Weed and Crop Species; assay: Post-emergent Test II herbicidal activity (Table 5); type: in vivo; details: post-emergence, 336 h, 14 days after application; for pest or weed control at 70 g/ha: application rate 70 g ai/ha; for pest or weed control at 140 g/ha: application rate 140 g ai/ha
# Procedure, shortened: (§1)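 Plants grown in Metro-Mix 360 (pH 6.0–6.8) in a greenhouse (~15 h photoperiod, 23–29 °C day) to first or second true leaf stage, then sprayed with compound in acetone/DMSO/aqueous crop-oil-surfactant carrier at 187 L/ha by track sprayer. Injury visually scored 0–100% versus untreated plants after 14 d.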
# [2] = system: Key Grass and Sedge Weeds as well as Grass Crops; assay: Post-emergent Test II herbicidal activity (Table 6); type: in vivo; details: post-emergence, 336 h; for pest or weed control at 70 g/ha: 70 g ai/ha; for pest or weed control at 140 g/ha: 140 g ai/ha
# Procedure, shortened: as §1
# [3] = ABUTH: velvetleaf (Abutilon theophrasti), read-out: Visual Growth Reduction (%) 14 Days After Application, ABUTH
# [4] = AMARE: redroot pigweed (Amaranthus retroflexus), read-out: Visual Growth Reduction (%) 14 Days After Application, AMARE
# [5] = BRSNN: oilseed-rape, canola (Brassica napus), read-out: Visual Growth Reduction (%) 14 Days After Application, BRSNN
# [6] = CHEAL: lambsquarters (Chenopodium album), read-out: Visual Growth Reduction (%) 14 Days After Application, CHEAL
# [7] = EPHHL: wild poinsettia (Euphorbia heterophylla), read-out: Visual Growth Reduction (%) 14 Days After Application, EPHHL
# [8] = HELAN: sunflower (Helianthus annuus), read-out: Visual Growth Reduction (%) 14 Days After Application, HELAN
# [9] = VIOTR: wild pansy (Viola tricolor), read-out: Visual Growth Reduction (%) 14 Days After Application, VIOTR
# [10] = CYPES: yellow nutsedge (Cyperus esculentus), read-out: Visual Growth Reduction (%) 14 Days After Application, CYPES
# [11] = DIGSA: crabgrass (Digitaria sanguinalis), read-out: Visual Growth Reduction (%) 14 Days After Application, DIGSA
# [12] = ECHCG: barnyardgrass (Echinochloa crus-galli), read-out: Visual Growth Reduction (%) 14 Days After Application, ECHCG
# [13] = ORYSA: rice (Oryza sativa), crop, read-out: Visual Growth Reduction (%) 14 Days After Application, ORYSA
# [14] = SETFA: giant foxtail (Setaria faberi), read-out: Visual Growth Reduction (%) 14 Days After Application, SETFA
# [15] = SORVU: grain sorghum (Sorghum vulgare), read-out: Visual Growth Reduction (%) 14 Days After Application, SORVU
# [16] = TRZSS (wheat, Triticum aestivum), crop, read-out: Visual Growth Reduction (%) 14 Days After Application, TRZSS
# [17] = ZEAMX: maize, corn (Zea mays), crop, read-out: Visual Growth Reduction (%) 14 Days After Application, ZEAMX
SMILES,"pest or weed control at 70 g/ha [1, 3] [%]","pest or weed control at 140 g/ha [1, 3] [%]","pest or weed control at 70 g/ha [1, 4] [%]","pest or weed control at 140 g/ha [1, 4] [%]","pest or weed control at 70 g/ha [1, 5] [%]","pest or weed control at 140 g/ha [1, 5] [%]","pest or weed control at 70 g/ha [1, 6] [%]","pest or weed control at 140 g/ha [1, 6] [%]","pest or weed control at 70 g/ha [1, 7] [%]","pest or weed control at 140 g/ha [1, 7] [%]","pest or weed control at 140 g/ha [1, 8] [%]","pest or weed control at 70 g/ha [1, 9] [%]","pest or weed control at 140 g/ha [1, 9] [%]","pest or weed control at 70 g/ha [2, 10] [%]","pest or weed control at 140 g/ha [2, 10] [%]","pest or weed control at 70 g/ha [2, 11] [%]","pest or weed control at 140 g/ha [2, 11] [%]","pest or weed control at 70 g/ha [2, 12] [%]","pest or weed control at 140 g/ha [2, 12] [%]","pest or weed control at 70 g/ha [2, 13] [%]",other results
C#Cc1ccc(-c2nc(N)c(OC)c(C(=O)OC)n2)c(F)c1F [Compound 84],0 to 29,0 to 29,0 to 29,0 to 29,0 to 29,0 to 29,0 to 29,0 to 29,0 to 29,0 to 29,60 to 74,0 to 29,0 to 29,0 to 29,0 to 29,0 to 29,0 to 29,0 to 29,0 to 29,0 to 29,"pest or weed control at 140 g/ha [2, 13]: 0 to 29%; pest or weed control at 70 g/ha [2, 14]: 0 to 29%; pest or weed control at 140 g/ha [2, 14]: 0 to 29%; pest or weed control at 70 g/ha [2, 15]: 0 to 29%; pest or weed control at 140 g/ha [2, 15]: 0 to 29%; pest or weed control at 70 g/ha [2, 16]: 0 to 29%; pest or weed control at 140 g/ha [2, 16]: 0 to 29%; pest or weed control at 70 g/ha [2, 17]: 0 to 29%; pest or weed control at 140 g/ha [2, 17]: 0 to 29%; melting point: 214 to 217 °C"
Nc1c(F)c(-c2ccc(C(F)(F)F)c(F)c2)nc(C(=O)O)c1Cl [Compound 134],85 to 94,85 to 94,85 to 94,95 to 100,95 to 100,95 to 100,95 to 100,95 to 100,95 to 100,95 to 100,95 to 100,95 to 100,95 to 100,95 to 100,95 to 100,75 to 84,85 to 94,95 to 100,95 to 100,45 to 59,"pest or weed control at 70 g/ha [1, 8]: 95 to 100%; pest or weed control at 140 g/ha [2, 13]: 45 to 59%; pest or weed control at 70 g/ha [2, 14]: 95 to 100%; pest or weed control at 140 g/ha [2, 14]: 95 to 100%; pest or weed control at 70 g/ha [2, 15]: 85 to 94%; pest or weed control at 140 g/ha [2, 15]: 85 to 94%; pest or weed control at 70 g/ha [2, 16]: 60 to 74%; pest or weed control at 140 g/ha [2, 16]: 75 to 84%; pest or weed control at 70 g/ha [2, 17]: 45 to 59%; pest or weed control at 140 g/ha [2, 17]: 60 to 74%; melting point: 124 to 126 °C"
C#Cc1ccc(-c2nc(N)c(OC)c(C(=O)O)n2)c(F)c1 [Compound 41],0 to 29,0 to 29,0 to 29,0 to 29,0 to 29,45 to 59,0 to 29,60 to 74,0 to 29,0 to 29,75 to 84,0 to 29,0 to 29,0 to 29,0 to 29,0 to 29,0 to 29,0 to 29,0 to 29,0 to 29,"pest or weed control at 70 g/ha [1, 8]: 60 to 74%; pest or weed control at 140 g/ha [2, 13]: 0 to 29%; pest or weed control at 70 g/ha [2, 14]: 0 to 29%; pest or weed control at 140 g/ha [2, 14]: 0 to 29%; pest or weed control at 70 g/ha [2, 15]: 0 to 29%; pest or weed control at 140 g/ha [2, 15]: 0 to 29%; pest or weed control at 70 g/ha [2, 16]: 0 to 29%; pest or weed control at 140 g/ha [2, 16]: 0 to 29%; pest or weed control at 70 g/ha [2, 17]: 0 to 29%; pest or weed control at 140 g/ha [2, 17]: 0 to 29%; melting point: 155 to 165 °C (dec.)"
